Assay results taken from patent publication US11033559B2, “Leukocyte infiltration promoting agent and antitumor immunostimulatory agent” (OSAKA UNIVERSITY, priority 2015, dated 2021).

Experiments:
Type in all cases: in vivo
[1] = system: tumor blood vessels in LLC tumor-bearing mice; assay: Structural changes in tumor blood vessels after administration of S1P; details: 0.3 mg/kg via the tail vein once daily for three days, 24 hours after final administration
Method: S1P, a lysophospholipid other than LPA, was examined for the ability to induce vascular network formation in the tumor as with LPA. LLC cells were subcutaneously inoculated into C57BL/6 […] mice aged 8 weeks (females, SLC, Inc.) in the same manner as in Reference Example 1. S1P (Avanti Polar Lipids, Inc.) was dissolved in PBS at 10 mM, and the solution was stored at -30° C. as a stock solution. Before use, the frozen stock solution was thawed and homogenized with an ultrasonic cleaner (SND Co., Ltd.) for 1 minute. The SIP solution was diluted in PBS to an appropriate concentration for administration at a dose of 0.3 mg/kg in […] PBS. LLC-bearing mice on day 9 post-inoculation (animals with a tumor volume of 60 to 80 mm^3) were subjected to the experiment. The mice were divided into two groups: a control group and an S1P group (n=3 per group). After grouping, S1P was administered via the tail vein to the mice of the S1P group at a dose of 0.3 mg/kg in 100 μL PBS once daily for consecutive three days including the day of grouping. For the control group, PBS (100 μL) was administered via the tail vein to the mice instead of S1P. At 24 hours after the final administration, the tumors were harvested from the mice, and specimens of tumor blood vessels were prepared in the same manner as in Reference Example 1. […]

[2] = system: tumor blood vessels in Lewis lung cancer (LLC) tumor-bearing mice; assay: Structural changes in tumor blood vessels (anti-CD31 immunostaining) after administration of LPA or LPA derivative; details: 3 mg/kg intraperitoneally once daily for five days, tumors harvested at 6 days, anti-CD31 staining
Method: LPA or an LPA derivative was administered to tumor-bearing mice generated by subcutaneous inoculation of a mouse cancer cell line, and post-administration structural changes in tumor blood vessels were examined.
Lewis lung cancer cells (hereinafter called LLC cells) were used as the mouse cancer cell line. LLC cells (1×10^6 cells in 100 μL PBS per animal) were subcutaneously injected into C57BL/6 NCrSlc mice aged 8 weeks (females, SLC, Inc.).
The LPA used was 18:1 LPA (Avanti Polar Lipids, Inc.). The LPA derivative used was VPC31144S (N-{(1S)-2-hydroxy-1-[(phosphonooxy)methyl]ethyl} (9Z) octade c-9-enamide). A 10 mM LPA stock solution and a 10 mM VPC31144S stock solution were separately prepared using 50% ethanol and stored at −30° C. Before use, each of the frozen stock solutions was thawed and homogenized with an ultrasonic cleaner (SND Co., Ltd.) for 1 minute. The solution was diluted in PBS to an appropriate concentration for administration at a dose of 3 mg/kg in 100 μL PBS.
On day 9 post-inoculation, LLC-bearing mice that had developed a tumor with a volume of 60 to 80 mm^3 (volume=length×width×height×0.5) were selected and subjected to the experiment. The mice were assigned to three groups: a control group, an LPA group and a VPC31144S group. Each group consisted of three mice. […]

LLC cells = assay: Tumor growth inhibition, subcutaneous tumor formed from LLC cells; details: LLC-bearing mice; LPA 3 mg/kg i.p. once daily for seven days; 5-FU 100 mg/kg i.p. once weekly, 2 times
Method: LLC cells (1×10^6 cells in 100 μL PBS per animal) were subcutaneously injected into C57BL/6 NCrSlc mice aged 8 weeks (females) in the same manner as in Reference Example 1. An LPA solution for administration was prepared in the same manner as in Reference Example 1. 5-FU (Kyowa Hakko Kirin Co., Ltd.) was used as an anticancer drug. 5-FU was prepared as a solution in physiological saline (Otsuka Pharmaceutical Co., Ltd.). On day 7 post-inoculation, LLC-bearing mice that had developed a tumor with a volume of 30 to 50 mm^3 were selected and subjected to the experiment. The mice were assigned to three groups: a control group, a 5-FU group and an LPA group (n=3 per group). After grouping, LPA (3 mg/kg/100 μL), 5-FU (100 mg/kg/100 μL) or PBS (100 μL) was intraperitoneally administered to the mice. The administration of LPA or PBS was performed once daily for consecutive seven days. The administration of 5-FU was performed once weekly, 2 times in total (day 7 and day 14 post-inoculation). Tumor size was measured over time after the start of the administration. Tumor volume was calculated by the following formula: length×width×height×0.5.

CCCCCCCCCCCCC/C=C/[C@@H](O)[C@@H](N)COP(=O)(O)O [S1P, sphingosine-1-phosphate]
vascular network formation in the tumor [1]: induced vascular network formation in the tumor

CCCCCCCC/C=C\CCCCCCCC(=O)N[C@@H](CO)COP(=O)(O)O [VPC31144S, N-{(1S)-2-hydroxy-1-[(phosphonooxy)methyl]ethyl} (9Z) octade c-9-enamide]
network structure of tumor blood vessels [2]: a continuous network of blood vessels was formed

O=c1[nH]cc(F)c(=O)[nH]1 [5-FU, reference compound]
inhibition of tumor growth (tumor volume) versus control group (LLC cells): remarkable inhibition of tumor growth
